According to patent US12708630B2, “Combined therapy of 4′-thio-5-aza-2′-deoxycytidine and Venetoclax” (PINOTBIO, INC., priority 2021, dated 2026):

How the values were obtained:
Assay in all cases: drug activity profiling cytotoxicity
Format in all cases: cell-based
ACHN = conditions: Homo sapiens; ACHN cell line, Kidney; read-out: Aza-T-dCyd IC50
In short: (§1)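 Each line's cytotoxic response to Aza-T-dCyd was recorded within a 200-line profiling study designed to find predictive markers.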

C32 = conditions: Homo sapiens; C32 cell line, Skin (Melanoma); read-out: Aza-T-dCyd IC50
In short: as §1

MC116 = conditions: Homo sapiens; MC116 cell line, B-cell lymphoma; read-out: Aza-T-dCyd IC50
In short: as §1

NCI-H295R = conditions: Homo sapiens; NCI-H295R cell line, Endocrine (Adrenal gland); read-out: Aza-T-dCyd IC50
In short: as §1

FaDu = conditions: Homo sapiens; FaDu cell line, Head and Neck; read-out: Aza-T-dCyd IC50
In short: as §1

BT474 = conditions: Homo sapiens, BT-474; BT474 cell line, Breast; read-out: Aza-T-dCyd IC50
In short: as §1

5637 = 5637 cell line, Bladder; read-out: Aza-T-dCyd IC50
In short: as §1

H4 = H4 cell line, CNS (Glioma); read-out: Aza-T-dCyd IC50
In short: as §1

BHT-101 = conditions: Homo sapiens; BHT-101 cell line, Endocrine (Thyroid); read-out: Aza-T-dCyd IC50
In short: as §1

KATO III = conditions: Homo sapiens; KATO III cell line, Stomach; read-out: Aza-T-dCyd IC50
In short: as §1

T24 = conditions: Homo sapiens, T-24; T24 cell line, Bladder; read-out: Aza-T-dCyd IC50
In short: as §1

PFSK-1 = conditions: Homo sapiens; PFSK-1 cell line, CNS (Glioma); read-out: Aza-T-dCyd IC50
In short: as §1

OE33 = conditions: Homo sapiens; OE33 cell line, Head and Neck; read-out: Aza-T-dCyd IC50
In short: as §1

OE19 = conditions: Homo sapiens; OE19 cell line, Head and Neck; read-out: Aza-T-dCyd IC50
In short: as §1

G-361 = conditions: Homo sapiens; G-361 cell line, Skin (Melanoma); read-out: Aza-T-dCyd IC50
In short: as §1

CFPAC-1 = conditions: Homo sapiens; CFPAC-1 cell line, Pancreas; read-out: Aza-T-dCyd IC50
In short: as §1

A498 = conditions: Homo sapiens; A498 cell line, Kidney; read-out: Aza-T-dCyd IC50
In short: as §1

MOLT-16 = conditions: Homo sapiens; MOLT-16 cell line, ALL; read-out: Aza-T-dCyd IC50
In short: as §1

RPMI 6666 = conditions: Homo sapiens; RPMI 6666 cell line, Hodgkin's lymphoma; read-out: Aza-T-dCyd IC50
In short: as §1

HT-1197 = conditions: Homo sapiens, HT1197; HT-1197 cell line, Bladder; read-out: Aza-T-dCyd IC50
In short: as §1

U-138MG = conditions: Homo sapiens, U138-MG; U-138MG cell line, CNS (Glioma); read-out: Aza-T-dCyd IC50
In short: as §1

BV-173 = conditions: Homo sapiens; BV-173 cell line, CML; read-out: Aza-T-dCyd IC50
In short: as §1

J82 = conditions: Homo sapiens; J82 cell line, Bladder; read-out: Aza-T-dCyd IC50
In short: as §1

SNB-19 = conditions: Homo sapiens; SNB-19 cell line, CNS (Glioma); read-out: Aza-T-dCyd IC50
In short: as §1

MOLT-4 = conditions: Homo sapiens; MOLT-4 cell line, ALL; read-out: Aza-T-dCyd IC50
In short: as §1

H9 = conditions: Homo sapiens; H9 cell line, T-cell Lymphoma; read-out: Aza-T-dCyd IC50
In short: as §1

Caki-1 = conditions: Homo sapiens; Caki-1 cell line, Kidney; read-out: Aza-T-dCyd IC50
In short: as §1

MG-63 = conditions: Homo sapiens; MG-63 cell line, Bone (Osteosarcoma); read-out: Aza-T-dCyd IC50
In short: as §1

Cal 27 = conditions: Homo sapiens; Cal 27 cell line, Head and Neck; read-out: Aza-T-dCyd IC50
In short: as §1

CML-T1 = CML-T1 cell line, read-out: Aza-T-dCyd IC50
In short: as §1

J-RT3-T3-5 = conditions: Homo sapiens; J-RT3-T3-5 cell line, T-cell Lymphoma; read-out: Aza-T-dCyd IC50
In short: as §1

With `Nc1ncn([C@H]2CC(O)[C@@H](CO)S2)c(=O)n1` (stereo partly shown) [Aza-T-dCyd, 4′-thio-5-aza-2′-deoxycytidine] the IC50 (ACHN) was 231 nM, the IC50 (C32) was greater than 10000 nM and the IC50 (MC116) was 29.7 nM. It also gave an IC50 (NCI-H295R) greater than 10000 nM, an IC50 (FaDu) of 208 nM and an IC50 (BT474) greater than 10000 nM. The IC50 5637 was 296 nM, the IC50 (H4) was 80.1 nM and the IC50 (BHT-101) was 235 nM. For the same compound, the IC50 (KATO III) was 807 nM, the IC50 (T24) was 1530 nM and the IC50 (PFSK-1) was 7610 nM. For the same compound, the IC50 (OE33) was 161 nM, the IC50 (OE19) was greater than 10000 nM and the IC50 (G-361) was 1080 nM. For the same compound, the IC50 (CFPAC-1) was 1750 nM, the IC50 (A498) was 73.8 nM and the IC50 (MOLT-16) was 18.2 nM. It also gave an IC50 (RPMI 6666) of 1050 nM, an IC50 (HT-1197) of 7130 nM and an IC50 (U-138MG) greater than 10000 nM. The IC50 (BV-173) was 5.32 nM, the IC50 (J82) was 1980 nM and the IC50 (SNB-19) was 170 nM. For the same compound, the IC50 (MOLT-4) was 35 nM, the IC50 (H9) was 468 nM and the IC50 (Caki-1) was 85.6 nM. The IC50 (MG-63) was 990 nM, the IC50 (Cal 27) was 319 nM and the IC50 (CML-T1) was 109 nM. The IC50 (J-RT3-T3-5) was 106 nM.
